Laboratory results: patent US9315505B2, “Heterocyclic compounds and uses thereof” (INTELLIKINE LLC, priority 2009, dated 2016)

What follows are molecules tested against T1, PI3K α (Homo sapiens, UniProt P42336) (assay: In vitro IC50, PI3K α (p110α/p85α inhibition assay)). Settings: in vitro kinase assay; read-out: IC50(nM) PI3K α.
T1 construct: purchased Upstate
Format: biochemical
Protocol: (§1) IC50 values are measured using either a standard TLC assay for lipid kinase activity (described below) or a high-throughput membrane capture assay. Kinase reactions are performed by preparing a reaction mixture containing kinase, inhibitor (2% DMSO final concentration), buffer (25 mM HEPES, pH 7.4, 10 mM MgCl2), and freshly sonicated phosphatidylinositol (100 μg/ml). Reactions are initiated by the addition of ATP containing 10 μCi of γ-32P-ATP to a final concentration 10 or 100 μM and allowed to proceed for 5 minutes at room temperature. For TLC analysis, reactions are then terminated by the addition of 105 μl 1N HCl followed by 160 μl CHCl3:MeOH (1:1). The biphasic mixture is vortexed, briefly centrifuged, and the organic phase is transferred to a new tube using a gel loading pipette tip precoated with CHCl3. This extract is spotted on TLC plates and developed for 3-4 hours in a 65:35 solution of n-propanol:1M acetic acid. The TLC plates are then dried, exposed to a phosphorimager screen (Storm, Amersham), and quantitated.
(§2) Other commercial kits or systems for assaying PI3-K activities are available. The commercially available kits or systems can be used to screen for inhibitors and/or agonists of PI3-Ks including but not limited to PI 3-Kinase α, β, δ, and γ. An exemplary system is PI 3-Kinase (human) HTRF™ Assay from Upstate. […] Briefly, the assay is a time resolved FRET assay that indirectly measures PIP3 product formed by the activity of a PI3-K. The kinase reaction is performed in a microtitre plate (e.g., a 384 well microtitre plate). The total reaction volume is approximately 20 ul per well. In the first step, each well receives 2 ul of test compound in 20% dimethylsulphoxide resulting in a 2% DMSO final concentration. Next, approximately 14.5 ul of a kinase/PIP2 mixture (diluted in 1× reaction buffer) is added per well for a final concentration of 0.25-0.3 ug/ml kinase and 10 uM PIP2. The plate is sealed and incubated for 15 minutes at room temperature. To start the reaction, 3.5 ul of ATP (diluted in 1× reaction buffer) is added per well for a final concentration of 10 uM ATP. The plate is sealed and incubated for 1 hour at room temperature. The reaction is stopped by adding 5 ul of Stop Solution per well and then 5 ul of Detection Mix is added per well. The plate is sealed, incubated for 1 hour at room temperature, and then read on an appropriate plate reader. Data is analyzed and IC50s are generated using GraphPad Prism 5.

T1 sequence (P42336 whole entry): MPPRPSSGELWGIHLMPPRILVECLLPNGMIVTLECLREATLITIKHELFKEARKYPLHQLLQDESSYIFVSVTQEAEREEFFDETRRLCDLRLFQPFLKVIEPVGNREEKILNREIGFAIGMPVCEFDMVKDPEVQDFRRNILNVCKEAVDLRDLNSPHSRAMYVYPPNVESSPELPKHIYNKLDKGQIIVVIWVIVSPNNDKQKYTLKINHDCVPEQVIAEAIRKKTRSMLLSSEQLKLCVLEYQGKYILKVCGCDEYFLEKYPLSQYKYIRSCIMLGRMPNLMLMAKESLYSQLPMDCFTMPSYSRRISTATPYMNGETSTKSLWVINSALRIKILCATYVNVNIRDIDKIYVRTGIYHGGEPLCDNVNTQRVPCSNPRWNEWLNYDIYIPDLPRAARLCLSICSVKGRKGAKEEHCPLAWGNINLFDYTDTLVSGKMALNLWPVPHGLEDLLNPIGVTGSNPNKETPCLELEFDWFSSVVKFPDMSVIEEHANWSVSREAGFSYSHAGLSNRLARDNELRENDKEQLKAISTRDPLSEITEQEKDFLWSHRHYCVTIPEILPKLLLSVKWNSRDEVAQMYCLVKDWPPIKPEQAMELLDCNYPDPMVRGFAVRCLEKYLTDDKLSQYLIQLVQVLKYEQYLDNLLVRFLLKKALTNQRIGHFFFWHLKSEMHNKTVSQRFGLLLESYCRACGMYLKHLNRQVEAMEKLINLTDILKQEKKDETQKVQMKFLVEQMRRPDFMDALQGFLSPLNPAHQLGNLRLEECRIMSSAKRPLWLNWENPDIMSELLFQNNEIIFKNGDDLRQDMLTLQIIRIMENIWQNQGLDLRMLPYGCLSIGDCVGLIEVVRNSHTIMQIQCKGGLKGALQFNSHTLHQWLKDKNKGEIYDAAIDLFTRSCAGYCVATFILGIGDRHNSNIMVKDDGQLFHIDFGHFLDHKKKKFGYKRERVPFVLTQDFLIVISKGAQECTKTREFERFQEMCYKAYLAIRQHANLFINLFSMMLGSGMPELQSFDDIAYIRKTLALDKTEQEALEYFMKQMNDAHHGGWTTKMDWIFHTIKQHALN
T1 sequence (P27986 whole entry partner): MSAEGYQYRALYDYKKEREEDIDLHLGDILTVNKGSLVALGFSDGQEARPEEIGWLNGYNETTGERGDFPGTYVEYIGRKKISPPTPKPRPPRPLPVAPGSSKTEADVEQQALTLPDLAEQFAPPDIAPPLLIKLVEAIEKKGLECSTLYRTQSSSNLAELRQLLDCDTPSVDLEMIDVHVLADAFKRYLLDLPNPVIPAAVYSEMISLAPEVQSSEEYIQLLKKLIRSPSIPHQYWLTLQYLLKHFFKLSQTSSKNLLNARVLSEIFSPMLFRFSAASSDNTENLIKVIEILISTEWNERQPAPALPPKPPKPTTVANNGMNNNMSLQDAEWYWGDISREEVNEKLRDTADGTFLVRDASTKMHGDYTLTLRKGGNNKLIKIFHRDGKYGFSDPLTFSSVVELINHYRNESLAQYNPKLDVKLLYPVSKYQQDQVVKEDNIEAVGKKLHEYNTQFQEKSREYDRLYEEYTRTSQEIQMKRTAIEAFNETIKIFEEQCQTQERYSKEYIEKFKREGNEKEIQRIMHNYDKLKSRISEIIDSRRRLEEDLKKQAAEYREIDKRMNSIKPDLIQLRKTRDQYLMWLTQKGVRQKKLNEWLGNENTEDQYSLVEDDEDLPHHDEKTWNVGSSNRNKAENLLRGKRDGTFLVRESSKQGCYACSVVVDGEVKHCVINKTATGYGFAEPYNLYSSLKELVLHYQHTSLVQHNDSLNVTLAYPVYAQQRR

IC50	Compound
> 10000 nM	Cc1cccc2cc(CNc3ncnc4[nH]cnc34)nc(OC3CCN(C(C)C)CC3)c12 [Compound 10]
> 10000 nM	Cc1cccc2cc(C(C)Nc3ncnc4[nH]cnc34)nc(OC3CCNCC3)c12 (centres unmarked) [Compound 14]
< 10000 nM	Cc1cccc2cc(Cn3nc(-c4cn[nH]c4)c4c(N)ncnc43)nc(N3CCN(C)CC3)c12 [Compound 18]
< 10000 nM	Cc1cccc2cc(C(C)Nc3ncnc4[nH]cnc34)nc(OC3CCN(C(C)C)CC3)c12 (centres unmarked) [Compound 21]
> 10000 nM	CC(Nc1ncnc2[nH]cnc12)c1cc2ccccc2c(OC2CCN(C)CC2)n1 (centres unmarked) [Compound 23]
< 10000 nM	Cc1cccc2cc(Cn3nc(-c4cn[nH]c4)c4c(N)ncnc43)nc(N3CCCC3)c12 [Compound 27]
> 10000 nM	CC(=O)N1CCC(Oc2nc(C(C)Nc3ncnc4[nH]cnc34)cc3cccc(C)c23)CC1 (centres unmarked) [Compound 47]
> 10000 nM	Cc1cccc2cc(C(C)Nc3ncnc4[nH]cnc34)nc(OC3CCN(S(C)(=O)=O)CC3)c12 (centres unmarked) [Compound 48]
< 10000 nM	Cc1cccc2cc(C(C)Nc3ncnc4[nH]cnc34)nc(OCC3CCN(C(C)C)CC3)c12 (centres unmarked) [Compound 51]
> 10000 nM	CC(Nc1ncnc2[nH]cnc12)c1cc2ccccc2c(OC2CCN(S(C)(=O)=O)CC2)n1 (centres unmarked) [Compound 53]
< 10000 nM	C[C@H](Nc1ncnc2[nH]cnc12)c1cc2cccc(Cl)c2c(OCC2CCN(C)CC2)n1 [Compound 73]

More lines, now with the values behind:

Compound	IC50
CCN(Cc1cc2cccc(C)c2c(OC2CCN(C(C)C)CC2)n1)c1ncnc2[nH]cnc12 [Compound 11]	> 10000 nM
Cc1cccc2cc(CN(C)c3ncnc4[nH]cnc34)nc(OC3CCN(C(C)C)CC3)c12 [Compound 12]	> 10000 nM
CC(=O)N1CCC(Nc2nc(C(C)Nc3ncnc4[nH]cnc34)cc3cccc(C)c23)CC1 (centres unmarked) [Compound 49]	> 10000 nM
CC(=O)N1CCC(Oc2nc(C(C)Nc3ncnc4[nH]cnc34)cc3ccccc23)CC1 (centres unmarked) [Compound 52]	> 10000 nM
C[C@H](Nc1ncnc2[nH]cnc12)c1cc2cccc(Cl)c2c(N2CCN(S(C)(=O)=O)CC2)n1 [Compound 64]	< 10000 nM
CC(=O)N1CCN(c2nc([C@H](C)Nc3ncnc4[nH]cnc34)cc3cccc(Cl)c23)CC1 [Compound 69]	> 10000 nM
CC(=O)N1CCN(c2nc(Cn3nc(-c4cn[nH]c4)c4c(N)ncnc43)cc3cccc(Cl)c23)CC1 [Compound 70]	> 10000 nM
C[C@H](Nc1ncnc2[nH]cnc12)c1cc2cccc(Cl)c2c(N(C)C)n1 [Compound 71]	< 10000 nM
C[C@H](Nc1ncnc2[nH]cnc12)c1cc2cccc(Cl)c2c(OCCN2CCCC2)n1 [Compound 72]	< 10000 nM
C[C@H](Nc1ncnc2[nH]cnc12)c1cc2cccc(Cl)c2c(OCCN2CCN(S(C)(=O)=O)CC2)n1 [Compound 74]	> 10000 nM

Each molecule was assayed against T2, PI3K γ (Homo sapiens, UniProt P48736) (assay: In vitro IC50, PI3K γ (p110γ inhibition assay)). Settings: in vitro kinase assay.
T2 construct: purchased Sigma
Format: biochemical
Protocol: as §1, with “Class I PI3-Ks can be either purchased (p110α/p85α, p110β/p85α, p110δ/p85α from Upstate, and p110γ from Sigma) or expressed as previously described (Knight et al., 2004). IC50” for “IC50”, “quantitated. For each compound, kinase activity is measured at 10-12 inhibitor concentrations representing two-fold dilutions from the highest concentration tested (typically, 200 μM).” for “quantitated.”
as §2

T2 sequence (P48736 whole entry): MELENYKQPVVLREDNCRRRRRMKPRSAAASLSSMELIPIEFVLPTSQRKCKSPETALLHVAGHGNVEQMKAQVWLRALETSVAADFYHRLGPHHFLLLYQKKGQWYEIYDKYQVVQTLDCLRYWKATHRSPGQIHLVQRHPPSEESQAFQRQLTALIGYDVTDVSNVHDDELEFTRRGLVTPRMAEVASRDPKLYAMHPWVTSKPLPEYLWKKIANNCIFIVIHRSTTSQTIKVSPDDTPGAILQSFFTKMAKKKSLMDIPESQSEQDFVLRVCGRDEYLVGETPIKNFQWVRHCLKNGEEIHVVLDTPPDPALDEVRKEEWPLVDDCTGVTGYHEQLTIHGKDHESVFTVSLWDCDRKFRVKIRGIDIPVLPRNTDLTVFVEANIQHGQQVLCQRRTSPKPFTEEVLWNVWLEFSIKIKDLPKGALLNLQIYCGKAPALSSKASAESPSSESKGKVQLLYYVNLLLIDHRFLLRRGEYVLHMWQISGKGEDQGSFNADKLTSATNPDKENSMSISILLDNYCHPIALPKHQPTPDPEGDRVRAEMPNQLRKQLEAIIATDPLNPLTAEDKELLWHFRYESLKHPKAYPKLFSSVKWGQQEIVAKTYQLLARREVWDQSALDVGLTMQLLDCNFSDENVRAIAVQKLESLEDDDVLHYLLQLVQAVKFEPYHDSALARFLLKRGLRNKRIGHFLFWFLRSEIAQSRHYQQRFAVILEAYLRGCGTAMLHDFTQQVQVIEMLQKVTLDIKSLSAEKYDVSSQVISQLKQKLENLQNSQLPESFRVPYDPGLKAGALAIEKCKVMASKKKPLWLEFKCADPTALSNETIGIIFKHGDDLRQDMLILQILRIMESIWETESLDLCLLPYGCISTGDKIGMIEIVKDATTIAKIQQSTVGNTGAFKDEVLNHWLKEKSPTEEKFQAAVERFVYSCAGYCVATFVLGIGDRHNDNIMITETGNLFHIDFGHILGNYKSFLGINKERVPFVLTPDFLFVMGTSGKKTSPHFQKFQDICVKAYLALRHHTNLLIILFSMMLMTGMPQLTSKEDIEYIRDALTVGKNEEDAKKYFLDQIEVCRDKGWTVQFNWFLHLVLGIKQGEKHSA

IC50	Compound
> 10000 nM	Cc1cccc2cc(CNc3ncnc4[nH]cnc34)nc(OC3CCN(C(C)C)CC3)c12 [Compound 10]
> 10000 nM	Cc1cccc2cc(C(C)Nc3ncnc4[nH]cnc34)nc(OC3CCNCC3)c12 (centres unmarked) [Compound 14]
> 10000 nM	Cc1cccc2cc(C(C)Nc3ncnc4[nH]cnc34)nc(OC3CCN(C(C)C)CC3)c12 (centres unmarked) [Compound 21]
> 10000 nM	CC(Nc1ncnc2[nH]cnc12)c1cc2ccccc2c(OC2CCN(C)CC2)n1 (centres unmarked) [Compound 23]
< 1000 nM	Cc1cccc2cc(Cn3nc(-c4cn[nH]c4)c4c(N)ncnc43)nc(N3CCCC3)c12 [Compound 27]
< 1000 nM	CC(=O)N1CCC(Oc2nc(C(C)Nc3ncnc4[nH]cnc34)cc3cccc(C)c23)CC1 (centres unmarked) [Compound 47]
< 10000 nM	Cc1cccc2cc(C(C)Nc3ncnc4[nH]cnc34)nc(OC3CCN(S(C)(=O)=O)CC3)c12 (centres unmarked) [Compound 48]
> 10000 nM	Cc1cccc2cc(C(C)Nc3ncnc4[nH]cnc34)nc(OCC3CCN(C(C)C)CC3)c12 (centres unmarked) [Compound 51]
> 10000 nM	CC(Nc1ncnc2[nH]cnc12)c1cc2ccccc2c(OC2CCN(S(C)(=O)=O)CC2)n1 (centres unmarked) [Compound 53]
< 10000 nM	C[C@H](Nc1ncnc2[nH]cnc12)c1cc2cccc(Cl)c2c(OCC2CCN(C)CC2)n1 [Compound 73]

More lines, now with the values behind:

Compound	IC50
CCN(Cc1cc2cccc(C)c2c(OC2CCN(C(C)C)CC2)n1)c1ncnc2[nH]cnc12 [Compound 11]	> 10000 nM
Cc1cccc2cc(CN(C)c3ncnc4[nH]cnc34)nc(OC3CCN(C(C)C)CC3)c12 [Compound 12]	> 10000 nM
CC(=O)N1CCC(Nc2nc(C(C)Nc3ncnc4[nH]cnc34)cc3cccc(C)c23)CC1 (centres unmarked) [Compound 49]	< 10000 nM
CC(=O)N1CCC(Oc2nc(C(C)Nc3ncnc4[nH]cnc34)cc3ccccc23)CC1 (centres unmarked) [Compound 52]	> 10000 nM
C[C@H](Nc1ncnc2[nH]cnc12)c1cc2cccc(Cl)c2c(N2CCN(S(C)(=O)=O)CC2)n1 [Compound 64]	< 1000 nM
CC(=O)N1CCN(c2nc([C@H](C)Nc3ncnc4[nH]cnc34)cc3cccc(Cl)c23)CC1 [Compound 69]	> 10000 nM
CC(=O)N1CCN(c2nc(Cn3nc(-c4cn[nH]c4)c4c(N)ncnc43)cc3cccc(Cl)c23)CC1 [Compound 70]	< 10000 nM
C[C@H](Nc1ncnc2[nH]cnc12)c1cc2cccc(Cl)c2c(N(C)C)n1 [Compound 71]	< 1000 nM
C[C@H](Nc1ncnc2[nH]cnc12)c1cc2cccc(Cl)c2c(OCCN2CCCC2)n1 [Compound 72]	< 1000 nM
C[C@H](Nc1ncnc2[nH]cnc12)c1cc2cccc(Cl)c2c(OCCN2CCN(S(C)(=O)=O)CC2)n1 [Compound 74]	< 10000 nM

Each molecule was assayed against T3, PI3K δ (Homo sapiens, UniProt O00329) (assay: In vitro IC50, PI3K δ (p110δ/p85α inhibition assay)). Settings: in vitro kinase assay; read-out: IC50(nM) PI3K δ.
T3 construct: purchased Upstate
Format: biochemical
Protocol: as §1, §2

T3 sequence (O00329 whole entry): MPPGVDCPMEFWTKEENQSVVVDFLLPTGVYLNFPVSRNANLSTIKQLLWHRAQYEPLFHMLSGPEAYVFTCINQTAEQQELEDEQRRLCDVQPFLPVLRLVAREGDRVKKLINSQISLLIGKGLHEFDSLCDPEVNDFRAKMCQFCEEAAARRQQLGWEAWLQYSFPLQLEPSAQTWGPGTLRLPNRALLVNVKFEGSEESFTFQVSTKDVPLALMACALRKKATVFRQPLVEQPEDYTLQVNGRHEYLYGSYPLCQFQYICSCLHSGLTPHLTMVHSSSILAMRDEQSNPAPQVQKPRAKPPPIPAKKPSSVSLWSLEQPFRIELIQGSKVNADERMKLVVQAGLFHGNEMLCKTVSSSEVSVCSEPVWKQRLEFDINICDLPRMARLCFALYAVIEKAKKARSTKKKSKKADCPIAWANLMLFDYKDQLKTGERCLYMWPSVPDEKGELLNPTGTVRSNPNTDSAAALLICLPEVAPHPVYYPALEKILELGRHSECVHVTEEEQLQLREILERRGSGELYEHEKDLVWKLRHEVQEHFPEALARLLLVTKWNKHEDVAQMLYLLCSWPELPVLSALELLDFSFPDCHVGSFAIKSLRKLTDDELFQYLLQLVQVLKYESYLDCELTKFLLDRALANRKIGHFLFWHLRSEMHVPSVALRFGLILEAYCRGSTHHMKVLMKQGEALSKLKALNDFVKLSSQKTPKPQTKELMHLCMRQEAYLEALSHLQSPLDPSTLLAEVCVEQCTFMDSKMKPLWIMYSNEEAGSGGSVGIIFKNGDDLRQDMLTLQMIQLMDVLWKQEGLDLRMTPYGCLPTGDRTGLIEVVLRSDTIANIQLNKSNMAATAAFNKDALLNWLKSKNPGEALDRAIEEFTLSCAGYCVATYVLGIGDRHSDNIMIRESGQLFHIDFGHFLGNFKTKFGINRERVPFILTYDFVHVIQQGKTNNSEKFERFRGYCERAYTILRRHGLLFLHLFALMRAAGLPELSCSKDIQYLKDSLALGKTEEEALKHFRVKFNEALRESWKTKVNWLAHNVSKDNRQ
T3 sequence (P27986 whole entry partner): as the sequence (P27986 whole entry partner) above

IC50	Compound
< 100 nM	Cc1cccc2cc(CNc3ncnc4[nH]cnc34)nc(OC3CCN(C(C)C)CC3)c12 [Compound 10]
< 1000 nM	Cc1cccc2cc(C(C)Nc3ncnc4[nH]cnc34)nc(OC3CCNCC3)c12 (centres unmarked) [Compound 14]
< 100 nM	Cc1cccc2cc(Cn3nc(-c4cn[nH]c4)c4c(N)ncnc43)nc(N3CCN(C)CC3)c12 [Compound 18]
< 100 nM	Cc1cccc2cc(C(C)Nc3ncnc4[nH]cnc34)nc(OC3CCN(C(C)C)CC3)c12 (centres unmarked) [Compound 21]
< 1000 nM	CC(Nc1ncnc2[nH]cnc12)c1cc2ccccc2c(OC2CCN(C)CC2)n1 (centres unmarked) [Compound 23]
< 100 nM	Cc1cccc2cc(Cn3nc(-c4cn[nH]c4)c4c(N)ncnc43)nc(N3CCCC3)c12 [Compound 27]
< 100 nM	CC(=O)N1CCC(Oc2nc(C(C)Nc3ncnc4[nH]cnc34)cc3cccc(C)c23)CC1 (centres unmarked) [Compound 47]
< 100 nM	Cc1cccc2cc(C(C)Nc3ncnc4[nH]cnc34)nc(OC3CCN(S(C)(=O)=O)CC3)c12 (centres unmarked) [Compound 48]
< 100 nM	Cc1cccc2cc(C(C)Nc3ncnc4[nH]cnc34)nc(OCC3CCN(C(C)C)CC3)c12 (centres unmarked) [Compound 51]
< 1000 nM	CC(Nc1ncnc2[nH]cnc12)c1cc2ccccc2c(OC2CCN(S(C)(=O)=O)CC2)n1 (centres unmarked) [Compound 53]
< 100 nM	C[C@H](Nc1ncnc2[nH]cnc12)c1cc2cccc(Cl)c2c(OCC2CCN(C)CC2)n1 [Compound 73]

Continued, molecule first:

Compound	IC50
CCN(Cc1cc2cccc(C)c2c(OC2CCN(C(C)C)CC2)n1)c1ncnc2[nH]cnc12 [Compound 11]	< 10000 nM
Cc1cccc2cc(CN(C)c3ncnc4[nH]cnc34)nc(OC3CCN(C(C)C)CC3)c12 [Compound 12]	< 1000 nM
CC(=O)N1CCC(Nc2nc(C(C)Nc3ncnc4[nH]cnc34)cc3cccc(C)c23)CC1 (centres unmarked) [Compound 49]	< 1000 nM
CC(=O)N1CCC(Oc2nc(C(C)Nc3ncnc4[nH]cnc34)cc3ccccc23)CC1 (centres unmarked) [Compound 52]	< 1000 nM
C[C@H](Nc1ncnc2[nH]cnc12)c1cc2cccc(Cl)c2c(N2CCN(S(C)(=O)=O)CC2)n1 [Compound 64]	< 100 nM
CC(=O)N1CCN(c2nc([C@H](C)Nc3ncnc4[nH]cnc34)cc3cccc(Cl)c23)CC1 [Compound 69]	< 1000 nM
CC(=O)N1CCN(c2nc(Cn3nc(-c4cn[nH]c4)c4c(N)ncnc43)cc3cccc(Cl)c23)CC1 [Compound 70]	< 100 nM
C[C@H](Nc1ncnc2[nH]cnc12)c1cc2cccc(Cl)c2c(N(C)C)n1 [Compound 71]	< 100 nM
C[C@H](Nc1ncnc2[nH]cnc12)c1cc2cccc(Cl)c2c(OCCN2CCCC2)n1 [Compound 72]	< 100 nM
C[C@H](Nc1ncnc2[nH]cnc12)c1cc2cccc(Cl)c2c(OCCN2CCN(S(C)(=O)=O)CC2)n1 [Compound 74]	< 100 nM
